One series deals with T1, BRD4 (BD2) (Homo sapiens, UniProt O60885).
T1 construct: purchased Reaction Biology Corp. RD-11-158
The series can be described thus: HTRF assay BRD4 (BD2). The class given is binding. Particulars: read-out: Inhibitory rate at 10 μM, BRD4 (BD2). The procedure: (§1) In brief, compounds were serially diluted in Echo plate according to the plate map and DMSO’s final fraction is 0.1%. Then, transferring compounds and DMSO to 384-well assay plate by Echo. After that, 2× Protein and Peptide Mix was added to the assay plate and 2× Detection Mix was then added to assay plate and shook for 30 s. After incubating the plate at room temperature for 1.5 h, the HTRF signals (Excitation wavelength at 340 nm, Emission wavelength at 615 & 665 nm) was read on EnVision (PerkinElmer, UK). (+)-JQ1 (BPS Bioscience, Cat. No. 27402) was used as a positive control. BRD4-1 (RD-11–157) and BRD4-2 (RD-11–158) were purchased from Reaction Biology Corp. (PENN, USA). For Curve fitting, the inhibition values was calculated in Excel using Equation (1): Inhibition %=(Max-Signal)/(Max-Min)*100, and the IC50 values was calculated in XL-Fit using Equation (2): Y = Bottom + (Top-Bottom)/(1+(IC50/X)[…]), Y is %inhibition and X is compound concentration.
(In general: Time-resolved FRET reads energy transfer from a long-lived donor to a nearby acceptor.)

The next series concerns the target T2, BRD4 (BD1) (Homo sapiens, UniProt O60885).
T2 construct: purchased Reaction Biology Corp. RD-11-157
Briefly: HTRF assay BRD4 (BD1). The conditions noted are these: 10 μM, read-out: Inhibitory rate at 10 μM, BRD4 (BD1). The class given is binding. The procedure: as §1

Series [1] can be described thus: MTS cell viability assay, NCM460 normal colon epithelial cells. Particulars: human, NCM460 normal colon epithelial cells, 10 μM. The class given is cell-based, human. An excerpt: (§2) Human colorectal cancer cell lines including RKO, SW620 and SW480 were purchased from Chinese Academy of Sciences, a typical cell library culture preservation committee (Shanghai, China). Normal human colon epithelial cell line NCM460 was purchased from ATCC (Washington, DC, USA). RPMI-1640 medium (12633020), foetal bovine serum (FBS, 26170043), penicillin-streptomycin (10378016) and phosphate buffered saline (PBS, 70011044) were purchased from Gibco (Eggenstein, Germany). 5-Fluorouracil (5-FU, E0201010050, purity ≥98%) was purchased from Energy Chemical (Shanghai, China). Dimethyl sulfoxide (DMSO, 41639) was obtained from Sigma-Aldrich (St. Louis, MO). 3–(4,5-dimethylthiazol-2-yl)-5–(3-carboxymethoxyphenyl)-2–(4-sulfophenyl)-2H-tetrazolium (MTS, G1111) was purchased from Promega (Madison, WI, USA). All cell lines were cultured in RPMI-1640 medium supplemented with 10% FBS, penicillin (100 units/mL) and streptomycin ([…]) at 37 °C in a humidified atmosphere containing 5% CO2.
(§3) Cell viability was measured via MTS assay. RKO, SW620, SW480 and NCM460 cells were seeded in 96-well plates at a density of 5000 cells per well for 24 h. After treatment with the test compounds at indicated concentration for another 48 h or 72 h at 37 °C, MTS solution was added to each well and incubated for another 30 min at 37 °C. Then, the absorbance at 490 nm was measured by a BioTek Synergy H4 microplate Reader (Vermont, USA). The IC50 values were calculated with Graphpad 7.0 software packages.
(Formazan colour is commonly taken as a measure of viable cells.)

The test system of the next series is RKO cells. Briefly: MTS cell viability assay, RKO cells. Format: cell-based. The conditions noted are these: Homo sapiens, 10 μM, 72 h.
Text: as §2, §3

In the next series the test system is SW480 cells. Briefly: MTS cell viability assay, SW480 cells. Particulars: Homo sapiens, 10 μM, 72 h. The class given is cell-based.
Text: as §2, §3

A further series has as its system SW620 cells. The series can be described thus: MTS cell viability assay, SW620 cells. The class given is cell-based. The conditions noted are these: Homo sapiens, SW-620, 10 μM, 72 h.
Text: as §2, §3

As usually defined, the melting point is the temperature, or range, at which the solid turns liquid. In turn, `CC(C)N1CCN(C(=S)SCc2ccc3oc(=O)ccc3c2)CC1` [ID-13, (2-Oxo-2H-chromen-6-yl)methyl 4-isopropylpiperazine-1-carbodithioate] displayed a melting point of 73.6 to 74.5 °C. Moreover, on BRD4 (BD2), the inhibition at 10 µM amounted to 10.8%. Moreover, on BRD4 (BD1), the inhibition at 10 µM turned out to be 14.4%.
In turn, `CN1CCN(C2CCN(C(=S)SCc3ccc4oc(=O)ccc4c3)CC2)CC1` [ID-20, (2-Oxo-2H-chromen-6-yl)methyl 4–(4-methylpiperazin-1-yl)piperidine-1-carbodithioate] displayed a melting point of 95 to 96 °C. Also, on BRD4 (BD2), the inhibition at 10 µM came to 29.3%. At BRD4 (BD1), the inhibition at 10 µM worked out at 36.6%.
On the same counts, the results for `O=c1ccc2cc(CSC(=S)N3CC(O)C3)ccc2o1` [ID-6, (2-Oxo-2H-chromen-6-yl)methyl 3-hydroxyazetidine-1-carbodithioate] are 137.8 to 138.7 °C, 8.7% and 15%.
`N#Cc1ccc(N2CCN(C(=S)SCc3ccc4oc(=O)ccc4c3)CC2)cc1` [ID-18, (2-Oxo-2H-chromen-6-yl)methyl 4–(4-cyanophenyl)piperazine-1-carbodithioate] registered a melting point of 181.5 to 182.4 °C. Also, the inhibition at 10 µM at BRD4 (BD2) is 8.4%. In addition, at BRD4 (BD1), the inhibition at 10 µM stood at 11.8%.
The compound `CN1CCN(C(=S)SCc2ccc3oc(=O)ccc3c2)CC1` [ID-12, (2-Oxo-2H-chromen-6-yl)methyl 4-methylpiperazine-1-carbodithioate] came in with a melting point of 124.3 to 125.2 °C. Further, the inhibition at 10 µM on BRD4 (BD2) came to 26.5%. Besides, the inhibition at 10 µM at BRD4 (BD1) was determined as 35.5%.
`O=c1ccc2cc(CSC(=S)N3CCN(CCO)CC3)ccc2o1` [ID-15, (2-Oxo-2H-chromen-6-yl)methyl 4–(2-hydroxyethyl)piperazine-1-carbodithioate] gave a melting point of 120.9 to 121.8 °C. Also, the inhibition at 10 µM on BRD4 (BD2) amounted to 33.3%. Further, the inhibition at 10 µM at BRD4 (BD1) stood at 40.2%.
In turn, `O=c1ccc2cc(CSC(=S)N3CCCCC3)ccc2o1` [ID-8, (2-Oxo-2H-chromen-6-yl)methyl piperidine-1-carbodithioate] displayed a melting point of 130.1 to 131 °C. Also, the inhibition at 10 µM at BRD4 (BD2) was found to be 8.2%. The inhibition at 10 µM on BRD4 (BD1) was found to be 7.8%.
For `CCCCN(CCCC)C(=S)SCc1ccc2oc(=O)ccc2c1` [ID-4, (2-Oxo-2H-chromen-6-yl)methyl dibutylcarbamodithioate], the values for the inhibition at 10 µM on BRD4 (BD2) and at BRD4 (BD1) were 3.1% and 4.2%, respectively.
`O=c1ccc2cc(CSC(=S)N3CCC3)ccc2o1` [ID-5, (2-Oxo-2H-chromen-6-yl)methyl azetidine-1-carbodithioate]: the melting point was in the range of 144 to 145 °C. The inhibition at 10 µM on BRD4 (BD2) was 5.8%. Moreover, the inhibition at 10 µM on BRD4 (BD1) came out at 6.2%.
The compound `CN(C)C(=S)SCc1ccc2oc(=O)ccc2c1` [ID-1, (2-Oxo-2H-chromen-6-yl)methyl dimethylcarbamodithioate] came in with a melting point of 151.6 to 152.5 °C. For the same compound, on BRD4 (BD2), the inhibition at 10 µM was 1.5%. Besides, the inhibition at 10 µM on BRD4 (BD1) worked out at 2.2%.
In turn, `CCCN(CCC)C(=S)SCc1ccc2oc(=O)ccc2c1` [ID-3, (2-Oxo-2H-chromen-6-yl)methyl dipropylcarbamodithioate] displayed a melting point of 52.3 to 53.2 °C. Also, the inhibition at 10 µM on BRD4 (BD2) is 3.3%. For the same compound, on BRD4 (BD1), the inhibition at 10 µM came out at 1.6%.
Regarding `O=c1ccc2cc(CSC(=S)N3CCN(C4CCCCC4)CC3)ccc2o1` [ID-16, (2-Oxo-2H-chromen-6-yl)methyl 4-cyclohexylpiperazine-1-carbodithioate], the melting point is 106.9 to 107.8 °C. For the same compound, on BRD4 (BD2), the inhibition at 10 µM worked out at 12.9%. In addition, the inhibition at 10 µM on BRD4 (BD1) was found to be 20.1%.
As for `CCN(CC)C(=S)SCc1ccc2oc(=O)ccc2c1` [ID-2, (2-Oxo-2H-chromen-6-yl)methyl diethylcarbamodithioate], the melting point lay within 100.1 to 101 °C. For the same compound, on BRD4 (BD2), the inhibition at 10 µM was 5.1%. At BRD4 (BD1), the inhibition at 10 µM worked out at 4.3%.
As to `O=c1ccc2cc(CSC(=S)N3CCC(c4ccccc4)CC3)ccc2o1` [ID-19, (2-Oxo-2H-chromen-6-yl)methyl 4-phenylpiperidine-1-carbodithioate], the melting point is 115.6 to 116.5 °C. Further, at BRD4 (BD2), the inhibition at 10 µM stood at 3.2%. The inhibition at 10 µM at BRD4 (BD1) came out at 6.5%.
`O=c1ccc2cc(CSC(=S)N3CCCC3)ccc2o1` [ID-7, (2-Oxo-2H-chromen-6-yl)methyl pyrrolidine-1-carbodithioate] returned a melting point of 110.2 to 111.1 °C. Besides, the inhibition at 10 µM at BRD4 (BD2) came out at 7.1%. Moreover, on BRD4 (BD1), the inhibition at 10 µM was 9.2%.
Taken in the same sequence, the figures for `O=c1ccc2cc(CSC(=S)N3CCN(c4ccc(O)cc4)CC3)ccc2o1` [ID-17, (2-Oxo-2H-chromen-6-yl)methyl 4–(4-hydroxyphenyl)piperazine-1-carbodithioate] were 195.5 to 196.4 °C, 27.7% and 39%.
Consider `O=c1ccc2cc(CSC(=S)N3CCCCCC3)ccc2o1` [ID-9, (2-Oxo-2H-chromen-6-yl)methyl azepane-1-carbodithioate], for which the melting point was in the range of 72.6 to 73.5 °C. Also, at BRD4 (BD2), the inhibition at 10 µM was found to be 5%. In addition, the inhibition at 10 µM on BRD4 (BD1) is 6.3%.
For `O=c1ccc2cc(CSC(=S)N3CCOCC3)ccc2o1` [ID-10, (2-Oxo-2H-chromen-6-yl)methyl morpholine-4-carbodithioate], the melting point lay within 135.4 to 136.3 °C. The inhibition at 10 µM on BRD4 (BD2) is 19.6%. The inhibition at 10 µM at BRD4 (BD1) was found to be 27.2%.
Consider `CC(C)(C)N1CCN(C(=S)SCc2ccc3oc(=O)ccc3c2)CC1` [ID-14, (2-Oxo-2H-chromen-6-yl)methyl 4-(tert-butyl)piperazine-1-carbodithioate], for which the melting point lay in the range of 159.4 to 160.3 °C. Besides, on BRD4 (BD2), the inhibition at 10 µM came to 16.6%. Moreover, the inhibition at 10 µM at BRD4 (BD1) amounted to 12.8%.
For orientation: viability means a read-out of living cells in per cent, often relative to untreated cells. On to `O=c1[nH]cc(F)c(=O)[nH]1` [5-FU, 5-Fluorouracil, reference compound], for which, in series [1], the viability at 48 h, 10 µM stood at 80.4%. The viability at 10 µM in the series with RKO cells amounted to 40.7%; in the series with SW480 cells, 43.9%; in the series on SW620 cells, 33.6%.
